Among the data in patent publication US20250074890A1, “CYANOPYRIDINE AND CYANOPYRIMIDINE BCL6 DEGRADERS” (DANA-FARBER CANCER INSTITUTE, INC., priority 2021, published 2025) are DC50 values, retold here.

One may read the DC50 as the concentration at which degradation of the target reaches its halfway point.

The assay has as its target T1, BCL6 (Homo sapiens, UniProt P41182).
T1 construct: Endogenous BCL6 was tagged with the 11-amino acid SmBiT through CRISPR/Cas9 gene editing; endogenous in cells; host or cells: Su-DHL-4 (CRISPR/Cas9 knock-in, single cell clone)
Nature of the assay: HiBiT cellular degradation assay in Su-DHL-4 cells. Format: cell-based. Particulars: concentration to reach 50% degradation of endogenous SmBiT-tagged BCL6, 24 hours of compound treatment. The procedure: DC50 (concentration to reach 50% degradation) values were determined from a cellular degradation assay (HiBiT, Promega™) in Su-DHL-4 cells (Table 1). Endogenous BCL6 was tagged with the 11-amino acid SmBiT through CRISPR/Cas9 gene editing and single cell clone selection. After 24 hours of compound treatment, cells were lysed and incubated with LgBiT protein to reconstitute intact nanoluciferase. Substrate was then added and relative luciferase units were measured. Degradation levels for each treatment were taken as a percentage compared to the control, 100% DMSO (Prism).
Background: The HiBiT peptide binds its large partner to form an active luciferase.
`C[C@@H]1CN(c2nc(Nc3ccc4c(c3)n(CCC(C)(C)O)c(=O)n4C)c(Cl)cc2C#N)C[C@H](N)C1(F)F` [Compound 48, 2-((3S,5R)-3-Amino-4,4-difluoro-5-methylpiperidin-1-yl)-5-chloro-6-((3-(3-hydroxy-3-methylbutyl)-1-methyl-2-oxo-2,3-dihydro-1H-benzo[d]imidazol-5-yl)amino)nicotinonitrile] showed a DC50 of 31 nM. Regarding `C[C@@H]1CN(c2nc(Nc3ccc4c(c3)n(CCC(C)(C)O)c(=O)n4C)c(Cl)cc2C#N)C[C@H](O)[C@@H]1F` [Compound 50, 5-chloro-2-((3S,4R,5R)-4-fluoro-3-hydroxy-5-methylpiperidin-1-yl)-6-((3-(3-hydroxy-3-methylbutyl)-1-methyl-2-oxo-2,3-dihydro-1H-benzo[d]imidazol-5-yl)amino)nicotinonitrile], the DC50 is 28 nM. `C[C@H]1CN(c2nc(Nc3ccc4c(c3)n(CCC(C)(C)O)c(=O)n4C)c(Cl)cc2C#N)C[C@@H](O)[C@H]1F` [Compound 51, 5-chloro-2-((3R,4S,5S)-4-fluoro-3-hydroxy-5-methylpiperidin-1-yl)-6-((3-(3-hydroxy-3-methylbutyl)-1-methyl-2-oxo-2,3-dihydro-1H-benzo[d]imidazol-5-yl)amino)nicotinonitrile] had a 50% degradation concentration (DC50) of over 400 nM. The value for `C[C@@H]1CN(c2nc(Nc3ccc4c(c3)n(CCC(C)(C)O)c(=O)n4C)c(F)cc2C#N)C[C@H](O)[C@@H]1F` [Compound 52, 5-Fluoro-2-((3S,4R,5R)-4-fluoro-3-hydroxy-5-methylpiperidin-1-yl)-6-((3-(3-hydroxy-3-methylbutyl)-1-methyl-2-oxo-2,3-dihydro-1H-benzo[d]imidazol-5-yl)amino)nicotinonitrile] was 17 nM; that for `C[C@H]1CN(c2nc(Nc3ccc4c(c3)n(CCC(C)(C)O)c(=O)n4C)c(F)cc2C#N)C[C@@H](O)[C@H]1F` [Compound 53, 5-Fluoro-2-((3R,4S,5S)-4-fluoro-3-hydroxy-5-methylpiperidin-1-yl)-6-((3-(3-hydroxy-3-methylbutyl)-1-methyl-2-oxo-2,3-dihydro-1H-benzo[d]imidazol-5-yl)amino)nicotinonitrile] was over 400 nM. The value for `C[C@H](O)CCn1c(=O)n(C)c2ccc(Nc3nc(N4C[C@@H](C)[C@@H](F)[C@@H](C)C4)c(C#N)cc3F)cc21` [Compound 54, 5-Fluoro-2-((3S,4R,5R)-4-fluoro-3,5-dimethylpiperidin-1-yl)-6-((3-((S)-3-hydroxybutyl)-1-methyl-2-oxo-2,3-dihydro-1H-benzo[d]imidazol-5-yl)amino)nicotinonitrile] was 38 nM; that for `C[C@@H]1CN(c2nc(Nc3ccc4c(c3)n(CC[C@@H](C)O)c(=O)n4C)c(F)cc2C#N)C[C@H](C)[C@@H]1F` [Compound 55, 5-Fluoro-2-((3S,4S,5R)-4-fluoro-3,5-dimethylpiperidin-1-yl)-6-((3-((R)-3-hydroxybutyl)-1-methyl-2-oxo-2,3-dihydro-1H-benzo[d]imidazol-5-yl)amino)nicotinonitrile] was 33 nM; that for `CC(O)CCn1c(=O)n(C)c2ccc(Nc3nc(N4C[C@@H](CCO)[C@H](F)[C@@H](C)C4)c(C#N)cc3F)cc21` (stereo partly drawn) [Compound 56, 5-fluoro-2-[(3R,4R,5S)-4-fluoro-3-(2-hydroxyethyl)-5-methyl-1-piperidyl]-6-[[3-(3-hydroxybutyl)-1-methyl-2-oxo-benzimidazol-5-yl]amino]pyridine-3-carbonitrile] was over 400 nM. The value for `CC(O)CCn1c(=O)n(C)c2ccc(Nc3nc(N4C[C@H](CCO)[C@@H](F)[C@H](C)C4)c(C#N)cc3F)cc21` (stereo partly drawn) [Compound 57, 5-fluoro-2-[(3S,4S,5R)-4-fluoro-3-(2-hydroxyethyl)-5-methyl-1-piperidyl]-6-[[3-(3-hydroxybutyl)-1-methyl-2-oxo-benzimidazol-5-yl]amino]pyridine-3-carbonitrile] was over 400 nM. `CNC(=O)COc1cc2cc(Nc3nc(N4C[C@@H](C)C(F)(F)[C@@H](C)C4)c(C#N)cc3Cl)ccc2nc1OCC1COC1` [Compound 58, 2-((6-((3-chloro-5-cyano-6-((3R,5S)-4,4-difluoro-3,5-dimethylpiperidin-1-yl)pyridin-2-yl)amino)-2-(oxetan-3-ylmethoxy)quinolin-3-yl)oxy)-N-methylacetamide]: the 50% degradation concentration (DC50) is over 400 nM. The value for `C[C@@H]1CN(c2nc(Nc3ccc4c(c3)n(CCC3(O)CC3)c(=O)n4C)c(Cl)cc2C#N)C[C@H](N)C1(F)F` [Compound 59, 2-((3S,5R)-3-Amino-4,4-difluoro-5-methylpiperidin-1-yl)-5-chloro-6-((3-(2-(1-hydroxycyclopropyl)ethyl)-1-methyl-2-oxo-2,3-dihydro-1H-benzo[d]imidazol-5-yl)amino)nicotinonitrile] was 48 nM.

Take `C[C@H]1CN(c2nc(Nc3ccc4c(c3)n(C[C@@H]3COC(=O)N3)c(=O)n4C)c(F)cc2C#N)C[C@@H](N)C1(F)F` [Compound 60, 2-[(3R,5S)-3-Amino-4,4-difluoro-5-methyl-1-piperidyl]-5-fluoro-6-[[1-methyl-2-oxo-3-[[(R)-2-oxooxazolidin-4-yl]methyl]benzimidazol-5-yl]amino]pyridine-3-carbonitrile]: the 50% degradation concentration (DC50) is over 400 nM. The result for `C[C@H]1CN(c2nc(Nc3ccc4c(c3)n(C[C@H]3COC(=O)N3)c(=O)n4C)c(F)cc2C#N)C[C@@H](N)C1(F)F` [Compound 61, 2-((3R,5S)-3-amino-4,4-difluoro-5-methylpiperidin-1-yl)-5-fluoro-6-((1-methyl-2-oxo-3-(((S)-2-oxooxazolidin-4-yl)methyl)-2,3-dihydro-1H-benzo[d]imidazol-5-yl)amino)nicotinonitrile] reads over 400 nM; that for `CNC(=O)COc1cc2cc(Nc3nc(N4C[C@@H](CCO)C(F)(F)[C@@H](C)C4)c(C#N)cc3Cl)ccc2n(C)c1=O` [Compound 62, 2-((6-((3-chloro-5-cyano-6-((3R,5S)-4,4-difluoro-3-(2-hydroxyethyl)-5-methylpiperidin-1-yl)pyridin-2-yl)amino)-1-methyl-2-oxo-1,2-dihydroquinolin-3-yl)oxy)-N-methylacetamide], 8 nM.

`CNC(=O)COc1cc2cc(Nc3nc(N4C[C@H](CCO)C(F)(F)[C@H](C)C4)c(C#N)cc3Cl)ccc2n(C)c1=O` [Compound 63, 2-((6-((3-chloro-5-cyano-6-((3S,5R)-4,4-difluoro-3-(2-hydroxyethyl)-5-methylpiperidin-1-yl)pyridin-2-yl)amino)-1-methyl-2-oxo-1,2-dihydroquinolin-3-yl)oxy)-N-methylacetamide] had a 50% degradation concentration (DC50) of 39 nM.

As to `CNC(=O)COc1cc2cc(Nc3nc(N4C[C@@H](C)[C@H](F)[C@@H](C)C4)c(C#N)cc3Cl)ccc2n(C)c1=O` [Compound 64, 2-((6-((3-chloro-5-cyano-6-((3R,4r,5S)-4-fluoro-3,5-dimethylpiperidin-1-yl)pyridin-2-yl)amino)-1-methyl-2-oxo-1,2-dihydroquinolin-3-yl)oxy)-N-methylacetamide], the DC50 came to 7 nM. The value for `CNC(=O)COc1cc2cc(Nc3nc(N4C[C@@H](C)C(F)(F)[C@@H](C)C4)c(C#N)cc3Cl)ccc2n(CC2CNC2)c1=O` [Compound 65, 2-((1-(Azetidin-3-ylmethyl)-6-((3-chloro-5-cyano-6-((3R,5S)-4,4-difluoro-3,5-dimethylpiperidin-1-yl)pyridin-2-yl)amino)-2-oxo-1,2-dihydroquinolin-3-yl)oxy)-N-methylacetamide] was 56 nM; that for `CNC(=O)COc1cc2cc(Nc3nc(N4C[C@@H](C)[C@@H](F)[C@@H](C)C4)c(C#N)cc3Cl)ccc2n(CCN)c1=O` [Compound 66, 2-((1-(2-Aminoethyl)-6-((3-chloro-5-cyano-6-((3S,4S,5R)-4-fluoro-3,5-dimethylpiperidin-1-yl)pyridin-2-yl)amino)-2-oxo-1,2-dihydroquinolin-3-yl)oxy)-N-methylacetamide] was 6 nM; that for `CNCC(O)Cn1c(=O)c(OCC(=O)NC)cc2cc(Nc3nc(N4C[C@@H](C)C(F)[C@@H](C)C4)c(C#N)cc3Cl)ccc21` (stereo partly drawn) [Compound 67, 2-((6-((3-Chloro-5-cyano-6-((3S,4S,5R)-4-fluoro-3,5-dimethylpiperidin-1-yl)pyridin-2-yl)amino)-1-(2-hydroxy-3-(methylamino)propyl)-2-oxo-1,2-dihydroquinolin-3-yl)oxy)-N-methylacetamide] was 4 nM. As to `CNC(=O)COc1cc2cc(Nc3nc(N4C[C@@H](C)C(F)[C@@H](C)C4)c(C#N)cc3Cl)ccc2n(CCN2CCOCC2)c1=O` (stereo partly drawn) [Compound 68, 2-[[6-[[3-Chloro-5-cyano-6-[(3R,5S)-4-fluoro-3,5-dimethyl-1-piperidyl]-2-pyridyl]amino]-1-(2-morpholinoethyl)-2-oxo-3-quinolyl]oxy]-N-methyl-acetamide], the 50% degradation concentration (DC50) stood at 4 nM. The result for `CNC(=O)COc1cc2cc(Nc3nc(N4C[C@@H](C)[C@@H](F)[C@@H](C)C4)c(C#N)cc3Cl)ccc2n(CCCN)c1=O` [Compound 69, 2-((1-(3-Aminopropyl)-6-((3-chloro-5-cyano-6-((3S,4S,5R)-4-fluoro-3,5-dimethylpiperidin-1-yl)pyridin-2-yl)amino)-2-oxo-1,2-dihydroquinolin-3-yl)oxy)-N-methylacetamide] reads 15 nM. The value for `C[C@@H]1CN(c2nc(Nc3ccc4c(c3)cc(OC[C@@H]3CNCCO3)c(=O)n4C)c(Cl)cc2C#N)C[C@H](C)[C@@H]1F` [Compound 70, 5-Chloro-2-((3S,4S,5R)-4-fluoro-3,5-dimethylpiperidin-1-yl)-6-((1-methyl-3-((S)-morpholin-2-ylmethoxy)-2-oxo-1,2-dihydroquinolin-6-yl)amino)nicotinonitrile] was over 400 nM.
